Measurements reported in patent US10168342B2, “Lipid probes and uses thereof” (THE SCRIPPS RESEARCH INSTITUTE, priority 2015, dated 2019).
Like-named read-outs stand apart in the source and are kept apart here.

Assays:
[1] = target: T1, AEA-DA lipid probe targets in Neuro2a cells (Mus musculus, UniProt P04223)
T1 sequence (P04223 22-369): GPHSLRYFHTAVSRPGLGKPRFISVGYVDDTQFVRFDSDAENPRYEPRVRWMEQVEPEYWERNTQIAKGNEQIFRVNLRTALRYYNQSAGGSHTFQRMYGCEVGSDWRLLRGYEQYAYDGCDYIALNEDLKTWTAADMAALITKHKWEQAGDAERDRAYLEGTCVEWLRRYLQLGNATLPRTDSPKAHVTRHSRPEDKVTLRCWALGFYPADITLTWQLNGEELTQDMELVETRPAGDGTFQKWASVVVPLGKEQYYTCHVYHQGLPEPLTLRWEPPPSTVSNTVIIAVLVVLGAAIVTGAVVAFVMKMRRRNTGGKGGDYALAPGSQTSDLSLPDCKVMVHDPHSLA

[2] = target: T2, AEA-DA lipid probe targets in Neuro2a cells (Mus musculus, UniProt Q11011)
T2 sequence (Q11011 1-920): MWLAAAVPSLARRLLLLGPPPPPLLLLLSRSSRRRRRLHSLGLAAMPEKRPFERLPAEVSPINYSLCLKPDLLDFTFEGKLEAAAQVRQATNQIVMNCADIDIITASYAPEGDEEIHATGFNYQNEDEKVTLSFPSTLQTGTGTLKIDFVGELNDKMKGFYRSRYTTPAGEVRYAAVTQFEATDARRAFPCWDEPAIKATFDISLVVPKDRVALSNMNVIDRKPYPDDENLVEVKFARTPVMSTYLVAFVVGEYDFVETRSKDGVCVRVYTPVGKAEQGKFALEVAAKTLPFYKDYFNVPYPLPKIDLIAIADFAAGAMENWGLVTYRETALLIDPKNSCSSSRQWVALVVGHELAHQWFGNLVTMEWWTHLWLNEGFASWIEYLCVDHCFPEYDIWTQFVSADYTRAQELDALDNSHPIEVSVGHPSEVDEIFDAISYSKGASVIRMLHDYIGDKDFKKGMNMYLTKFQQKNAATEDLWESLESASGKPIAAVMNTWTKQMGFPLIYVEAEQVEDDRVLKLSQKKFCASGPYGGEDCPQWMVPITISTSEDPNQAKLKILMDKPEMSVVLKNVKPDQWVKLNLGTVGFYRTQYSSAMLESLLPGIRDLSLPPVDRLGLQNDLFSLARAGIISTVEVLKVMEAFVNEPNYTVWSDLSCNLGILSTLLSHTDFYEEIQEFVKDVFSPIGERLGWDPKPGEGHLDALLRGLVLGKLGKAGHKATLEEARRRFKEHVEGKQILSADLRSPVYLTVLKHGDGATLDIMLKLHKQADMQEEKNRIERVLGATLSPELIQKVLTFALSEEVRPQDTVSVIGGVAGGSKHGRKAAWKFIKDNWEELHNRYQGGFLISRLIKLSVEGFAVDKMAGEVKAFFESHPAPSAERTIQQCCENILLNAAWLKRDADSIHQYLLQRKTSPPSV

[3] = target: AEA-DA lipid probe targets in Neuro2a cells (Mus musculus, UniProt Q3UV70); details: protein Pdp1; Neuro2a cells; competitor 25 μM
AEA-DA lipid probe targets in Neuro2a cells (Mus musculus, UniProt Q3UV70), sequence (Q3UV70 72-538): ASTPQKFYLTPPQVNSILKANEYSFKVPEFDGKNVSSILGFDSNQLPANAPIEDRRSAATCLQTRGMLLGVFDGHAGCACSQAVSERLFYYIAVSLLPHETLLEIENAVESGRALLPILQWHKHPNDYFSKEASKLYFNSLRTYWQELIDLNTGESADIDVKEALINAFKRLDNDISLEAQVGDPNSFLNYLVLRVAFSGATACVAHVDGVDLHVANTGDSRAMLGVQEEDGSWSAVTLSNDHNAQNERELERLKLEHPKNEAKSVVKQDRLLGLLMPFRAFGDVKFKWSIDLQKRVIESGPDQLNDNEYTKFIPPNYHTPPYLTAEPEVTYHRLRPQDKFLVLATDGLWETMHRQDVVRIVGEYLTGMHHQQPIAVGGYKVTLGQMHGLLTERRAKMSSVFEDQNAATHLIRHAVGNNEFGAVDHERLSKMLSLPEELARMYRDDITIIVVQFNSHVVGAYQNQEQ

[4] = tested on: PGF2α-EA formation in PMA-stimulated A549 cells; assay: Oxidative metabolism of AEA in A549 cells (prostamide formation); format: cell-based, human; details: MJN228, KML110 5 and 25 μM, others 25 μM, AEA 20 μM
Procedure: The media from the PMA-stimulated cells was removed and cells were washed with DPBS (2×3 mL) before adding freshly prepared media solutions containing vehicle or compound (2 mL/plate). After incubating for 30 min at 37° C., a solution of BHT-stabilized AEA (60 μM AEA; 60 μM BHT) in the same media was added to the cells (1.0 mL/plate) and incubated for 1 h. The media from the cells was then transferred to glass vials containing MS internal standards [PGE2-EA-d4 (25 pmol)], centrifuged (1,500×g, 5 min) to remove detached cells and then loaded onto pre-equilibrated reversed phase SPE cartridges (Phenomenex, Strata-X 33 μm, 60 mg/3 mL). After washing cartridges with 5% MeOH/H2O (3 mL), prostamides were eluted with MeOH (1.0 mL) and the eluent was concentrated under a stream of N2. Concentrated samples were stored at −80° C. until the day of analysis when they were reconstituted in Mobile Phase A [100 μL, 30% CH3CN in H2O (0.1% AcOH, 5.0 mM NH4OAc)].
Media extracts were analyzed by LC/MS/MS with LC separation performed on a Kinetex reversed phase C18 column (50×4.6 mm, 2.6 μm particle size, 100Å). Mobile phase A was composed of 30% (v/v) CH3CN in H2O and Mobile phase B was composed of 50% (v/v) CH3CN in i-PrOH. Both mobile phases also contained 0.1% AcOH and NH4OAc (5 mM) to facilitate ionization and LC separation. […]
MS analysis of prostamides was performed on an Agilent 6460 Triple Quadrupole LC/MS System with operating conditions as follows: gas temperature (300° C.); gas flow (9 L·min^−1); nebulizer (45 psi); sheath gas temperature (300° C.); sheath gas flow (12 L·min^−1); positive and negative capillary voltage (3.5 kV). Analysis was achieved using multiple reaction monitoring with precursor to product ion transitions, optimized collision energies (CE) as listed below and prostamide quantification was achieved by normalized of analyte peaks relative to a deuterated prostamide internal standard (PGE2-EA-d4) to account for differences in extraction efficiency. […]

[5] = target: AEA-DA lipid probe targets in Neuro2a cells (Mus musculus, UniProt Q78IK4); details: protein Apool; Neuro2a cells; competitor 25 μM
AEA-DA lipid probe targets in Neuro2a cells (Mus musculus, UniProt Q78IK4), sequence (Q78IK4 28-265): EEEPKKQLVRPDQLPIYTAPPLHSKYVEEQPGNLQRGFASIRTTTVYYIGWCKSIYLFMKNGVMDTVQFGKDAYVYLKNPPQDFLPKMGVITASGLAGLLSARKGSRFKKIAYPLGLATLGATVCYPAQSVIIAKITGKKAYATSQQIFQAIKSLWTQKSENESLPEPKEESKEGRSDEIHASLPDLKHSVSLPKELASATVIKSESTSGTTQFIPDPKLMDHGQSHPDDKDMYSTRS

[6] = target: A-DA lipid probe targets in A549 cells (Homo sapiens, UniProt Q5HYK3); assay: In situ competitive SILAC profiling with A-DA probe in (PMA-stimulated) A549 cells; details: A549 cells, A-DA probe
A-DA lipid probe targets in A549 cells, sequence (Q5HYK3 43-327): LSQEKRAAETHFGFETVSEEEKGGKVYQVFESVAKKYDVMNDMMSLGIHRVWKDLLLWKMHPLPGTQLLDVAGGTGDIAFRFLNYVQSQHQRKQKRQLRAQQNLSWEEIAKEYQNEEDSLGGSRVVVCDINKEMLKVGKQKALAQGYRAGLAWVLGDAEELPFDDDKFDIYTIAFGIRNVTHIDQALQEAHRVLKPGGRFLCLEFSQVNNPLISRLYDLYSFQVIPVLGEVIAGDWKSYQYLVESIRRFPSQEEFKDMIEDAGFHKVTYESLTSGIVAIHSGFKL

`CCCCC/C=C\C/C=C\C/C=C\C/C=C\CCCC(=O)NCCO` [AEA, anandamide, reference compound] was tested, and the “SILAC ratio H2-K1” value ([1]; competitor 200 μM) was 1.2 and the “SILAC ratio Npepps” value ([2]; competitor 200 μM) was 1.1.
For `O=C(/C=C/c1cccnc1)NCCCCC1CCN(C(=O)c2ccccc2)CC1` [FK-866, reference compound], the “SILAC ratio (AEA-DA competition)” value [3] was 0.9.
With `CN1CCN(C(=O)c2c(-c3ccccc3)c3cc([N+](=O)[O-])ccc3n2C)CC1` [KML110, (1-Methyl-5-nitro-3-phenyl-1H-indol-2-yl)(4-methylpiperazin-1-yl)methanone] the “conversion of exogenous AEA to PGF2α-EA” value [4] was “suppress” and the “SILAC ratio (AEA-DA competition)” value [5] was 1.0.
With `CN1CCN(C(=O)c2[nH]c3ccc([N+](=O)[O-])cc3c2-c2ccccc2)CC1` [MJN228, (4-Methylpiperazin-1-yl)(5-nitro-3-phenyl-1H-indol-2-yl)methanone] the “conversion of exogenous AEA to PGF2α-EA” value [4] was “suppress”, the “SILAC ratio H2-K1” value ([1]; competitor 10 μM) was 1.0 and the “SILAC ratio H2-K1” value ([1]; competitor 50 μM) was 0.9. The “SILAC ratio H2-K1” value ([1]; competitor 100 μM) was 1.0, the “SILAC ratio Npepps” value ([2]; competitor 25 μM) was 1.5 and the “SILAC ratio Npepps” value ([2]; competitor 100 μM) was 4.3. For the same compound, the “SILAC ratio (AEA-DA competition)” value [3] was 1.4.
In the case of `C=CCN(C)CCCCCCOc1ccc(C(=O)c2ccc(Br)cc2)c(F)c1` [Ro488071], the “SILAC ratio, COQ5 (Q5HYK3)” value ([6]; competitor 5 μM) is reported as 2.0 and the “SILAC ratio, COQ5 (Q5HYK3)” value ([6]; competitor 50 μM) is reported as 3.4.
`C=CCN(C)CCCCCCOc1ccc(C(=O)c2ccc(Br)cc2)c(F)c1` [Ro 48-8071, reference compound] was tested, and the “SILAC ratio (AEA-DA competition)” value [5] was 0.9.
